What was measured:
Format in all cases: in vivo
[1] = system: Sorghum vulgare Pers. (SORVU); assay: Test 2 glasshouse assay (IF50 formulation, X-77), pre-emergence herbicidal activity; conditions: Sorghum bicolor, 480 h, 250 g/ha, 20DAA, read-out: Percentage phytotoxicity SORVU
Procedure: (§1) Seeds of a variety of monocotyledonous and dicotyledonous test plants are sown in standard soil in pots. The plants are cultivated for one day (for pre-emergence) or for about 12 days (for post-emergence) under controlled conditions in a glasshouse (warm climate species at 24/18° C., cool climate species at 20/16° C., both at day/night; 16 hours light; 65% humidity).
(§2) An “instant formulation”, known as the “IF50”, containing 50 g/liter (i.e. 5% w/v) of the “technical” (i.e. unformulated) active ingredient is prepared by dissolving the active ingredient in a mixture of organic solvents and emulsifier, details of which are provided in the Table below. This IF50 is then mixed with a small, variable amount of acetone to aid dissolution, before addition of a 0.2% v/v aqueous solution of the adjuvant X-77 (which is a mixture of alkyl aryl polyoxyethylene glycols and free fatty acids in isopropanol, CAS Registry number 11097-66-8), as the aqueous diluent, to form an aqueous spray solution which contains a predetermined concentration of the active ingredient (which varies depending on the application rate of the active ingredient to the plants) and 0.2% v/v of the adjuvant X-77. This aqueous spray solution is then sprayed onto the plants, after one day's cultivation (for pre-emergence), or after about 12 days' cultivation (range=10-13 days) (for post-emergence).
(§3) The test plants are then grown on, in a glasshouse (greenhouse) under controlled conditions (warm climate species at 24/18° C., cool climate species at 20/16° C., both at day/night; 16 hours light; 65% humidity) and are watered twice daily. 15 days after application of the test herbicide (15DAA) (for post-emergence), and 20 days after application of the test herbicide (20DAA) (for pre-emergence), the test plants are evaluated visually, and an assessed percentage phytotoxicity score is given for each herbicidal application on each plant species (with 100%=total damage to plant; 0%=no damage to plant).
(§4) Warm climate (“warm season”) grassy monocotyledonous weeds: Setaria faberi (SETFA), Panicum miliaceum (PANMI), Sorghum vulgare Pers. (SORVU) (or Sorghum bicolor (L) Moench ssp. Bicolor), Digitaria sanguinalis (DIGSA), Echinochloa crus-galli (ECHCG), and Brachiaria plantaginea (BRAPL).

[2] = system: Digitaria sanguinalis (DIGSA); assay: as above; conditions: 480 h, 250 g/ha, 20DAA, read-out: Percentage phytotoxicity DIGSA
Procedure: as §1, §2, §3, §4

[3] = system: Panicum miliaceum (PANMI); assay: as above; conditions: 480 h, 250 g/ha, 20DAA, read-out: Percentage phytotoxicity PANMI
Procedure: as §1, §2, §3, §4

Setaria faberi (SETFA) [4] = assay: as above; conditions: 480 h, 250 g/ha, 20DAA, read-out: Percentage phytotoxicity SETFA
Procedure: as §1, §2, §3, §4

[5] = system: Brachiaria plantaginea (BRAPL); assay: as above; conditions: Urochloa plantaginea, 480 h, 250 g/ha, 20DAA, read-out: Percentage phytotoxicity BRAPL
Procedure: as §1, §2, §3, §4

[6] = system: Echinochloa crus-galli (ECHCG); assay: as above; conditions: 480 h, 250 g/ha, 20DAA, read-out: Percentage phytotoxicity ECHCG
Procedure: as §1, §2, §3, §4

Lolium perenne (LOLPE) [7] = assay: as above; conditions: 480 h, 250 g/ha, 20DAA, read-out: Percentage phytotoxicity LOLPE
Procedure: as §1, §2, §3
(§5) Cool climate (“cool season”) grassy monocotyledonous weeds: Alopecurus myosuroides (ALOMY), Avena fatua (AVEFA), Lolium perenne (LOLPE).

[8] = system: Alopecurus myosuroides (ALOMY); assay: Test 2 glasshouse assay (IF50 formulation, X-77), post-emergence herbicidal activity; conditions: 360 h, 15 DAA, visual score, read-out: Post-emergence herbicidal activity (percentage phytotoxicity) ALOMY; for pest or weed control at 30 g/ha: application rate 30 g/ha; for pest or weed control at 250 g/ha: application rate 250 g/ha; for pest or weed control at 125 g/ha: application rate 125 g/ha
Procedure: as §1, §2, §3, §5

Avena fatua (AVEFA) = assay: as above; conditions: 360 h, 15 DAA, visual score, read-out: Post-emergence herbicidal activity (percentage phytotoxicity) AVEFA; for pest or weed control at 30 g/ha: application rate 30 g/ha; for pest or weed control at 250 g/ha: application rate 250 g/ha; for pest or weed control at 125 g/ha: application rate 125 g/ha
Procedure: as §1, §2, §3, §5

Lolium perenne (LOLPE) [9] = assay: as above; conditions: 360 h, 15 DAA, visual score, read-out: Post-emergence herbicidal activity (percentage phytotoxicity) LOLPE; for pest or weed control at 30 g/ha: application rate 30 g/ha; for pest or weed control at 250 g/ha: application rate 250 g/ha; for pest or weed control at 125 g/ha: application rate 125 g/ha
Procedure: as §1, §2, §3, §5

[10] = system: Abutilon theophrasti (ABUTH); assay: Test 1 glasshouse assay, post-emergence herbicidal activity; conditions: 312 h, post-emergence (Example 1B Table 1), after 13 days, read-out: Percentage phytotoxicity ABUTH
Outline: (§6)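 Plants sprayed post-emergence after 8 days' growth with active ingredient in acetone/water (50:50) plus 0.5% Tween 20; glasshouse at 24/16° C day/night, 14 h light, 65% humidity. Visual percentage phytotoxicity scored 13 days later (100% = total damage, 0% = none).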

[11] = system: Zea mays (ZEAMX, corn/maize); assay: as above; conditions: 312 h, post-emergence (Example 1B Table 1), after 13 days, read-out: Percentage phytotoxicity ZEAMX
Outline: as §6

Setaria faberi (SETFA) [12] = assay: as above; conditions: 312 h, post-emergence (Example 1B Table 1), after 13 days, read-out: Percentage phytotoxicity SETFA
Outline: as §6

[13] = system: Amaranthus retroflexus (AMARE); assay: as above; conditions: 312 h, post-emergence (Example 1B Table 1), after 13 days, read-out: Percentage phytotoxicity AMARE
Outline: as §6

Row | Compound | pest or weed control at 250 g/ha [1] [%] | pest or weed control at 250 g/ha [2] [%] | pest or weed control at 250 g/ha [3] [%] | pest or weed control at 250 g/ha (Setaria faberi (SETFA) [4]) [%] | pest or weed control at 250 g/ha [5] [%] | pest or weed control at 250 g/ha [6] [%] | pest or weed control at 250 g/ha (Lolium perenne (LOLPE) [7]) [%] | pest or weed control at 30 g/ha [8] [%] | pest or weed control at 250 g/ha [8] [%] | pest or weed control at 30 g/ha (Avena fatua (AVEFA)) [%] | pest or weed control at 250 g/ha (Avena fatua (AVEFA)) [%] | pest or weed control at 30 g/ha (Lolium perenne (LOLPE) [9]) [%] | pest or weed control at 30 g/ha [10] [%] | pest or weed control at 250 g/ha [10] [%] | pest or weed control at 30 g/ha [11] [%] | pest or weed control at 250 g/ha [11] [%] | pest or weed control at 30 g/ha (Setaria faberi (SETFA) [12]) [%] | pest or weed control at 250 g/ha (Setaria faberi (SETFA) [12]) [%] | pest or weed control at 30 g/ha [13] [%] | pest or weed control at 250 g/ha [13] [%] | further results
1 | C#CCC1CC(=O)C(c2c(Cl)cc(-c3ccc(Cl)cc3)cc2OC)C1=O (stereo not drawn) [Compound A11, 2-[2-chloro-4-(4-chlorophenyl)-6-methoxyphenyl]-4-prop-2-ynylcyclopentane-1,3-dione] | 80 | 90 | 60 | 90 | 100 | 70 | 60 | 30 | 70 | 20 | 70 | 30 | 30 | 80 | 100 | 100 | 100 | 100 | 50 | 80 | pest or weed control at 250 g/ha (Lolium perenne (LOLPE) [9]): 40%
2 | C#CCC1CC(=O)C(c2c(Cl)cc(-c3ccc(F)c(F)c3)cc2OC)C1=O (stereo not drawn) [Compound A13] | 100 | 100 | 100 | 100 | 100 | 100 | 100 | 30 | – | 30 | – | 10 | 70 | 80 | 100 | 100 | 100 | 100 | 60 | 90 | pest or weed control at 125 g/ha [8]: 100%; pest or weed control at 125 g/ha (Avena fatua (AVEFA)): 80%; pest or weed control at 125 g/ha (Lolium perenne (LOLPE) [9]): 80%
3 | C#CCC1CC(=O)C(c2c(C)cc(-c3ncc(Cl)cc3F)cc2C)C1=O (stereo not drawn) [Compound A3] | 80 | 90 | 80 | 80 | 90 | 80 | 80 | 80 | 100 | 40 | 100 | 30 | – | 90 | – | 100 | – | 100 | – | 90 | pest or weed control at 250 g/ha (Lolium perenne (LOLPE) [9]): 90%; pest or weed control at 62.5 g/ha [10]: 80%; pest or weed control at 62.5 g/ha [11]: 100%; pest or weed control at 62.5 g/ha (Setaria faberi (SETFA) [12]): 100%; pest or weed control at 62.5 g/ha [13]: 60%
4 | C#CCC1CC(=O)C(c2c(Cl)cc(-c3ccc(F)cc3)cc2OC)C1=O (stereo not drawn) [Compound A7] | 90 | 100 | 100 | 90 | 90 | 90 | 60 | 10 | 100 | 20 | 100 | 30 | 30 | 80 | 100 | 100 | 100 | 100 | 20 | 80 | pest or weed control at 250 g/ha (Lolium perenne (LOLPE) [9]): 80%
5 | C#CCC1CC(=O)C(c2c(F)cc(-c3ccc(Cl)cc3)cc2OC)C1=O (stereo not drawn) [Compound A14] | 90 | 100 | 100 | 100 | 100 | 80 | 70 | – | – | – | – | – | – | 0 | – | 100 | – | 100 | – | 60 | pest or weed control at 125 g/ha [8]: 60%; pest or weed control at 125 g/ha (Avena fatua (AVEFA)): 40%; pest or weed control at 125 g/ha (Lolium perenne (LOLPE) [9]): 20%; pest or weed control at 62.5 g/ha [10]: 0%; pest or weed control at 62.5 g/ha [11]: 100%; pest or weed control at 62.5 g/ha (Setaria faberi (SETFA) [12]): 90%; pest or weed control at 62.5 g/ha [13]: 50%
6 | C#CCC1CC(=O)C(c2c(F)cc(-c3ccc(F)c(F)c3)cc2OC)C1=O (stereo not drawn) [Compound A22] | 70 | 90 | 80 | 90 | 90 | 70 | 20 | 50 | – | 0 | – | 10 | 0 | 40 | 100 | 100 | 90 | 100 | 10 | 80 | pest or weed control at 125 g/ha [8]: 70%; pest or weed control at 125 g/ha (Avena fatua (AVEFA)): 70%; pest or weed control at 125 g/ha (Lolium perenne (LOLPE) [9]): 50%

Source: patent US10375956B2, “Herbicidally active 2-(substituted-phenyl)-cyclopentane-1,3-dione compounds and derivatives thereof” (Syngenta Limited, priority 2013, dated 2019)
